For series [1], the target named is T1, SbnA (Staphylococcus aureus, UniProt A6QDA0).
T1 construct: synthetic codon-optimised gene in pSH21p::TrxA, His-Trx tag with TEV site, tag cleaved and removed; expressed in E. coli BL21 ArcticExpress (DE3)
The series is described as follows: PNP-coupled continuous assay (MESG, […] nm), global fit. The format is biochemical.

Series [2] concerns the target T1, SbnA. Briefly: PNP-coupled continuous assay (MESG, […] nm). The format is biochemical.
Series [3] concerns the target T1, SbnA. The series is described as follows: PNP-coupled continuous assay, global fit to ping-pong with substrate inhibition. It is filed as biochemical. As to conditions: substrate inhibition (unproductive binding to internal aldimine); 0.035-0.720 mM L-OPS; 50 mM HEPES pH 7.8, 1 mM TCEP, 25 °C.
The subject of series [4] is N[C@@H](COP(=O)(O)O)C(=O)O. Briefly: purified protein. As to conditions: co-substrate L-Glu 0.1-150 mM, 50 mM HEPES pH 7.8, 1 mM TCEP, 25 °C.

T1 sequence (A6QDA0 whole entry): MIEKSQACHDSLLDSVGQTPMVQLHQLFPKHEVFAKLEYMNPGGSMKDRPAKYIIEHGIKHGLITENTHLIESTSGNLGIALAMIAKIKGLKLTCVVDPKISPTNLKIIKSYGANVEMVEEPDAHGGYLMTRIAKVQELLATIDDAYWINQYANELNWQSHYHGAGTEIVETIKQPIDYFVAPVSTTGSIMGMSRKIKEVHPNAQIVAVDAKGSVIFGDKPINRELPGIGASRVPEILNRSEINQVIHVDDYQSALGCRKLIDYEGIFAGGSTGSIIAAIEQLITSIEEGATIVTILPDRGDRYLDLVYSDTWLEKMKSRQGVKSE

The IC50 is the concentration at which inhibition is half-maximal. Higher therefore signals lower potency. With `O=C(O)CC(C(=O)O)c1ccccc1` (racemic) [compound 2, 2-phenylsuccinic acid], in series [1], the Ki is 124 ± 13 µM. This compound showed a concentration for half-maximal inhibition (IC50) in series [2] of 366 ± 37 µM.
The matching figures for `O=C(O)CC(O)(CC(=O)O)C(=O)O` [citrate]: 900 ± 200 µM and 800 ± 100 µM.
In the same order, the values of `O=C(O)/C=C(\C(=O)O)c1ccccc1` [compound 3, Z-2-phenylbut-2-enedioic acid] are 16 ± 2 µM and 37 ± 3 µM.
Consider `N[C@@H](CCC(=O)O)C(=O)O` [L-glutamate], for which the “Ki” value in series [3] worked out at 25750 ± 7930 µM.
As for `O=C(O)CCC(=O)C(=O)O` [α-ketoglutarate], in series [2], the IC50 was determined as 2600 ± 200 µM.
A word on the Km: it is the substrate concentration at which the rate is half of its maximum. For orientation: kcat/Km means the turnover number divided by the Michaelis constant. For “SbnA (Staphylococcus aureus subsp. aureus str. Newman)”, in series [4], the Km came out at 27 ± 6 µM and the kcat/Km was determined as 170000 M⁻¹ s⁻¹.

Source of the values: paper PMC12414870, “First‐in‐class inhibitors of SbnA reduce siderophore production in Staphylococcus aureus” (The Febs Journal, 2025).
